According to ChEMBL document CHEMBL5604063, “ASAP - DENV-2 NS2B-NS3 protease fluorescence dose response” (2024):
Several values for one entry are separate records, joined by “and”; a condition that tells them apart may be missing. Identical values can stand only once.

How the values were obtained:
Genome polyprotein [1] = molecular target: T1, Genome polyprotein (dengue virus type 2, UniProt P29990); assay type: functional, Thailand/16681/1984
Genome polyprotein [2] = molecular target: T1, Genome polyprotein; assay type: functional, Thailand/16681/1984; remark: listed apart in the source

T1 sequence (P29990 1346-1475 limits assumed): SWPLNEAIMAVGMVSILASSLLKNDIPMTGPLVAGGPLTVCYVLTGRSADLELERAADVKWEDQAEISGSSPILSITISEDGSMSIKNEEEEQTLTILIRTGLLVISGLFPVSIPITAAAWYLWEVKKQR
T1 sequence (P29990 1476-2093 limits assumed): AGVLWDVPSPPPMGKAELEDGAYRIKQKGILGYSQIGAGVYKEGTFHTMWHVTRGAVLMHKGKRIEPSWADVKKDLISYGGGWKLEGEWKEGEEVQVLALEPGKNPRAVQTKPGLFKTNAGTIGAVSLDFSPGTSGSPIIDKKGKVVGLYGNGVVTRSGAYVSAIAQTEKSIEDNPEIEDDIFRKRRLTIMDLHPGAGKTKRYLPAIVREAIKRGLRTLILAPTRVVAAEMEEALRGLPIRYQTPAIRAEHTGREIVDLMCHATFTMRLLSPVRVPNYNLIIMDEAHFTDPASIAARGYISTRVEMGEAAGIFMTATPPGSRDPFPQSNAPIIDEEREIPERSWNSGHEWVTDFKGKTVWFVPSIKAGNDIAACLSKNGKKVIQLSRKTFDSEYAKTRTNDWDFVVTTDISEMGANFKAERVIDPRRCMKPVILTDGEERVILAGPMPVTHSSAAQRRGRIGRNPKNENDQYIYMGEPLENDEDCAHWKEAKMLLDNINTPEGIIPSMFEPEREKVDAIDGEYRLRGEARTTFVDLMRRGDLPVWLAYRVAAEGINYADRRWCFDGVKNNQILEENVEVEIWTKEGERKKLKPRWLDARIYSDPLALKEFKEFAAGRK

| SMILES | IC50 (Genome polyprotein [1]) | IC50 (Genome polyprotein [2]) |
| --- | --- | --- |
| CCOC(=O)[C@H](Nc1ccc2c(c1)CNC2)c1cc(Cl)cc(C2CC2)c1 | 89.8 µM | 76.7 µM |
| O=C(Nc1ccc2c(c1)CNC2)c1ccc2c(c1)C1(CC1)C(=O)N2 | > 100 µM | > 99.5 µM |
| COC1CCN(C(=O)c2ccnc(NC(=O)c3cc(C4CC4)n(C)c3C)c2)CC1 | > 100 µM | > 99.5 µM |
| O=C(NCC(F)F)[C@H](Nc1ccc2c(c1)CNC2)c1cc(Cl)ccc1Sc1ccccc1 | > 100 µM | > 99.5 µM |
| CSc1cc2c(cc1NC(=O)c1cc(F)cc3[nH]ncc13)CNC2 | > 100 µM | 71.1 µM |
| CN1CCC[C@H](c2nc3c(C(=O)Nc4ccc5c(c4)CNC5)cc(F)cc3[nH]2)C1=O | > 100 µM | > 99.5 µM |
| Cc1c(C(=O)Nc2cc(C(=O)N3CCC[C@H]3C(N)=O)ccn2)cc(C2CC2)n1C | > 100 µM | > 99.5 µM |
| CC(C)(C)OC(=O)N1Cc2cc(NC(=O)c3cc(Cl)cc4c3cnn4[C@@H]3CCCCO3)ccc2[C@H]1CO | > 100 µM | > 99.5 µM |
| CO[C@]1(C)C(=O)Nc2cc(F)cc(C(=O)Nc3ccc4c(c3)CNC4)c21 | > 100 µM | > 99.5 µM |
| O=C(Nc1ccc2c(c1)CNC2)c1ccc2[nH]cc(C3CCNCC3)c2c1 | 75.9 µM | 19.5 µM and 31.3 µM |
| O=C1Cc2c(cccc2C(=O)Nc2ccc3c(c2)CCNCC3)N1 | 33.8 µM | 21 µM |
| C[C@]1(OCCCO)C(=O)Nc2cc(F)cc(C(=O)Nc3ccc4c(c3)CNC4)c21 | > 100 µM | > 99.5 µM |
| N#Cc1ccc(-c2nc3c(C(=O)Nc4ccc5c(c4)CNC5)cc(F)cc3[nH]2)cc1 | 11.3 µM and 10.2 µM | 2.9 µM and 2.52 µM |
| O=C(Nc1cc(-c2cccnc2)ccn1)c1cc(C2CC2)[nH]c(=O)c1 | > 100 µM | > 99.5 µM |
| O=C(Nc1cnc2c(c1)CNC2)c1cc(F)cc2[nH]ncc12 | 46.6 µM and 49.7 µM | 36.5 µM |
| CC(C)CO[C@]1(C)C(=O)Nc2cc(F)cc(C(=O)Nc3ccc4c(c3)CNC4)c21 | > 100 µM | > 99.5 µM |
| Cc1cc(C(=O)Nc2ccc3c(c2)CNC3)cc2nn[nH]c12 | > 100 µM | > 99.5 µM |
| CC(C)c1nnc(-c2nc3c(C(=O)Nc4ccc5c(c4)CNC5)cc(F)cc3[nH]2)s1 | 64.1 µM and 67.1 µM | 35.2 µM and 34.8 µM |
| O=C1Nc2ccc(C(=O)Nc3ccc4c(c3)CNC4)cc2C1=O | 5.35 µM and 5.79 µM | 2.66 µM and 1.99 µM |
| N[C@H]1COC[C@H]1n1cc(C(=O)Nc2cc(-c3cccnc3)ccn2)cn1 | > 100 µM | > 99.5 µM |
| CCS(=O)(=O)c1ccc(Cl)cc1[C@H](Nc1ccc2c(c1)CNC2)C(=O)NCC(F)F | > 100 µM | > 99.5 µM |

| SMILES | IC50 (Genome polyprotein [1]) | IC50 (Genome polyprotein [2]) |
| --- | --- | --- |
| COc1ccc(-c2nc3c(C(=O)Nc4ccc5c(c4)CNC5)cc(F)cc3[nH]2)nn1 | 32 µM and 19 µM and 38 µM and 36.5 µM | 11.4 µM and 19.1 µM and 8.41 µM |
| Cc1c(C(=O)Nc2cc(C(=O)N3C[C@@H]4[C@H](O)[C@@H]4C3)ccn2)cc(C2CC2)n1C | > 100 µM | > 99.5 µM |
| Cc1c(C(=O)Nc2cc(C(=O)N3CC[C@H](C(N)=O)C3)ccn2)cc(C2CC2)n1C | > 100 µM | > 99.5 µM |
| Cc1c(C(=O)Nc2cc(C(=O)N3CC4(CCO4)C3)ccn2)cc(C2CC2)n1C | > 100 µM | > 99.5 µM |
| O=C1Cc2c(cccc2C(=O)NC2CCC3(CC2)COC3)N1 | > 100 µM | > 99.5 µM |
| O=C1Cc2c(cccc2C(=O)Nc2cnc(OC3CCC3)nc2)N1 | > 100 µM | > 99.5 µM |
| Cc1c(C(=O)Nc2cc(C(=O)N[C@H]3CCNC3=O)ccn2)cc(C2CC2)n1C | > 100 µM | > 99.5 µM |
| Cn1nc([C@H](Nc2cc([C@H]3CCOC3)ccn2)C(F)(F)F)cc1C1CC1 | > 100 µM | > 99.5 µM |
| COc1cc(Cl)cc([C@H](Nc2ccc3c(c2)CNC3)C(=O)NCC(F)F)c1 | > 100 µM | > 99.5 µM |
| Cc1cc(CN)cc(NC(=O)c2cccc3c2CC(=O)N3)c1 | > 100 µM | 75.9 µM |
| Cc1c(C(=O)Nc2cc(C(=O)N(C)C3COC3)ccn2)cc(C2CC2)n1C | > 100 µM | > 99.5 µM |
| CC(C)n1cnc2cc(C(=O)Nc3ccc4c(c3)CNC4)ccc21 | > 100 µM | > 99.5 µM |
| O=C1Cc2c(cccc2C(=O)Nc2ccc(Cl)c(CO)n2)N1 | > 100 µM | > 99.5 µM |
| O=C(Nc1ccc2c(c1)CNC2)c1cc(F)cc(-c2cnc3n2CCC3)c1 | > 100 µM | > 99.5 µM |
| C[C@]1(OCCO)C(=O)Nc2cc(F)cc(C(=O)Nc3ccc4c(c3)CNC4)c21 | > 100 µM | > 99.5 µM |
| O=C(NCC(F)F)[C@H](Nc1ccc2c(c1)CNC2)c1cc(Cl)cc(Cl)c1OCCN1CCOCC1 | > 100 µM | > 99.5 µM |
| Cc1c(C(=O)Nc2cc(C(=O)N3CC[C@H](O)C3)ccn2)cc(C2CC2)n1C | > 100 µM | > 99.5 µM |
| NCc1ccc(-c2csc3cc(C(=O)Nc4ccc5c(c4)CNC5)ccc23)cc1 | > 100 µM | 28.4 µM and 18.3 µM |
| O=C1Cc2c(cccc2C(=O)Nc2ccc3c(c2)CNCC3)N1 | > 100 µM | 76.4 µM |
| CS(=O)(=O)c1cc2c(cc1NC(=O)c1cc(F)cc3[nH]ncc13)CNC2 | > 100 µM | > 99.5 µM |
| O=C(NCC(F)F)[C@H](Nc1cnc2c(c1)CNC2)c1cc(Cl)cc(C2CC2)c1 | > 100 µM | > 99.5 µM |

| SMILES | IC50 (Genome polyprotein [1]) | IC50 (Genome polyprotein [2]) |
| --- | --- | --- |
| CC(C)Oc1ccc(Cl)cc1[C@H](Nc1ccc2c(c1)CNC2)C(=O)NCC(F)F | > 100 µM | > 99.5 µM |
| Cc1cc([C@H](Nc2ccc3c(c2)CNC3)C(=O)NCC(F)F)cc(C(F)(F)F)c1 | > 100 µM | > 99.5 µM |
| O=C(Nc1ccc2c(c1)CN[C@H]2[C@H](O)CO)c1cc(F)cc2[nH]ncc12 | > 100 µM | > 99.5 µM |
| NCCc1cc(C(=O)Nc2cc(-c3cccnc3)ccn2)no1 | > 100 µM | > 99.5 µM |
| O=C(Nc1ccc2c(c1)CNC2)c1cccc2c(C3CNC3)n[nH]c12 | 22.7 µM and 26.4 µM | 19 µM and 17.2 µM |
| O=C(NCC(F)F)[C@H](Nc1ccc2c(c1)CNC2)c1cc(Br)ccc1OCc1ccccn1 | > 100 µM | > 99.5 µM |
| Cc1c(C(=O)Nc2cc(C(=O)N(C)[C@H]3C[C@H](O)C3)ccn2)cc(C2CC2)n1C | > 100 µM | > 99.5 µM |
| Cc1c(C(=O)Nc2cc(C(=O)N3Cc4cn[nH]c4C3)ccn2)cc(C2CC2)n1C | > 100 µM | > 99.5 µM |
| Clc1cc(CNc2ccc3c(c2)[C@@H]2CC[C@H]3N2)c2cn[nH]c2c1 | > 100 µM | > 99.5 µM |
| O=C1Cc2c(cccc2C(=O)Nc2ccc3c(c2)CNCCO3)N1 | > 100 µM | > 99.5 µM |
| CO[C@H]1CCCN(C(=O)c2ccnc(NC(=O)c3cc(C4CC4)n(C)c3C)c2)C1 | > 100 µM | > 99.5 µM |
| NCc1cccc(NC(=O)c2cccc3c2CC(=O)N3)c1 | > 100 µM | > 99.5 µM |
| CS(=O)(=O)c1cncc(-c2cc(F)cc(C(=O)Nc3ccc4c(c3)CNC4)c2)c1 | > 100 µM | > 99.5 µM |
| Cn1ccc(-c2cc(F)cc(C(=O)Nc3ccc4c(c3)CNC4)c2)cc1=O | > 100 µM | > 99.5 µM |
| CC(=O)N(c1ccc2c(c1)CNC2)[C@H](C(=O)NCC(F)F)c1cc(Cl)cc(C2CC2)c1 | > 100 µM | > 99.5 µM |
| COCCO[C@]1(C)C(=O)Nc2cc(F)cc(C(=O)Nc3ccc4c(c3)CNC4)c21 | > 100 µM | > 99.5 µM |
| O=C(NCC(F)F)[C@H](Nc1ccc2c(c1)CNC2)c1cc(Br)ccc1C1CC1 | > 100 µM | > 99.5 µM |
| CCc1cnc2c(NC(=O)c3cccc4c3CC(=O)N4)cnn2c1 | > 100 µM | > 99.5 µM |
| O=C(Nc1ccc2c(c1)CNC2)c1cc(F)cc2[nH]c(-c3ccc(F)cc3O)nc12 | > 100 µM | 62.1 µM |
| N#Cc1c[nH]c2c(C(=O)Nc3ccc4c(c3)CNC4)cccc12 | > 100 µM | > 99.5 µM |
| O=C1Cc2c(cccc2C(=O)Nc2ccc3c(n2)CNC3)N1 | > 100 µM | > 99.5 µM |

| SMILES | IC50 (Genome polyprotein [1]) | IC50 (Genome polyprotein [2]) |
| --- | --- | --- |
| Cn1nccc1-c1cc(NC(=O)c2cc(F)cc3[nH]ncc23)cc2c1CNC2 | 81.4 µM | 54.1 µM |
| O=C(NCC(F)F)[C@H](Nc1ccc2c(c1)CNC2)c1cc(Br)cc2ccccc12 | > 100 µM | > 99.5 µM |
| CN1CCc2c([nH]c3ccc(C(=O)Nc4ccc5c(c4)CNC5)cc23)C1=O | > 100 µM | > 99.5 µM |
| Cc1[nH]c2c(C(=O)Nc3ccc4c(c3)CNC4)cccc2c1C | > 100 µM | > 99.5 µM |
| O=C(Nc1cc2c(cn1)CNC2)c1cc(F)cc2[nH]ncc12 | > 100 µM | > 99.5 µM |
| C=CC[C@H]1NCc2cc(NCc3cc(Cl)cc4[nH]ncc34)ccc21 | > 100 µM | > 99.5 µM |
| Cc1c(C(=O)Nc2cc(C(=O)N3CCOC[C@H](O)C3)ccn2)cc(C2CC2)n1C | > 100 µM | > 99.5 µM |
| Cc1c(C(=O)Nc2cc(C(=O)N3CCOCC3)ccn2)cc(C2CC2)n1C | > 100 µM | > 99.5 µM |
| O=C(O)C[C@H]1NCc2cc(NC(=O)c3cc(Cl)cc4[nH]ncc34)ccc21 | > 100 µM | > 99.5 µM |
| Cc1c(C(=O)Nc2cc(C(=O)N3CCCNC(=O)C3)ccn2)cc(C2CC2)n1C | > 100 µM | > 99.5 µM |
| O=C(Nc1ccc2c(c1)CN[C@H]2CO)c1cc(F)cc2[nH]ncc12 | > 100 µM | > 99.5 µM |
| O=C(NCC(F)F)[C@H](Nc1ccc2c(c1)CNC2)c1cc(Cl)ccc1OC[C@H]1CCCO1 | > 100 µM | > 99.5 µM |
| O=C(Nc1ccc2c(c1)CNC2)c1cccc2c3c([nH]c12)CCC3 | > 100 µM | > 99.5 µM |
| Cc1c(C(=O)Nc2cc(Br)c3c(c2)COC3)cc(C2CC2)n1C | > 100 µM | > 99.5 µM |
| O=C1CCc2cc(C(=O)Nc3ccc4c(c3)CNC4)cc(F)c2N1 | > 100 µM | > 99.5 µM |
| CC(C)O[C@]1(C)C(=O)Nc2cc(F)cc(C(=O)Nc3ccc4c(c3)CNC4)c21 | > 100 µM | > 99.5 µM |
| Cc1c(C(=O)Nc2cc(C(=O)N3CC(C(N)=O)C3)ccn2)cc(C2CC2)n1C | > 100 µM | > 99.5 µM |
| NCc1csc2cc(C(=O)Nc3cc([C@H]4CCOC4)ccn3)ccc12 | > 100 µM | > 99.5 µM |
| N[C@H]1Cc2ccc(NC(=O)c3cccc4c3CC(=O)N4)cc2C1 | 48.5 µM and 56.1 µM | 20.5 µM |
